Data on two compounds can be found in ChEMBL document CHEMBL1201862, “PubChem BioAssay data set” (2004).

Test systems include CCRF-CEM; EKVX; HCC 2998; HCT-15; HL-60; HOP-92; Hs-578T; M14; MDA-MB-435; MDA-N; NCI-H522; OVCAR-4; OVCAR-5; OVCAR-8; PC-3; SF-295; SW-620; TK-10; UACC-257; UO-31.
What all share (experiment): NCI anticancer screen, dose series, 48 h

Structures are written as SMILES.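 A five-concentration, 48-hour dose response in 96-well plates underlies each endpoint, interpolated linearly between surrounding concentrations. GI50 marks 50% less growth.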 Activity calls are given as the source filed them. Cut-off read from the data, not from the text of the source: active = GI50 up to about 1.1 µM and inactive = higher. *1 amine or outer side, *2 acyl side, *3 side chain or, on linkers, in order; H or OH if unused. Where a SMILES comes first, the peptide text is derived from it. Bridges are numbered along the chain shown (N, C = ends). [ ]: non-standard residue; d: D form. The star is where a group is joined. ξ: configuration not given here. ξOrn(4,5-diOH) = O=C(C(CC(O)C(O)N[*:3])N[*:1])[*:2]; ξhTyr(βξ-OH,γξ-OH) = NC(C(=O)O)C(O)C(O)c1ccc(O)cc1; ξPro(3ξ-OH,4ξ-Me) = CC1CNC(C(=O)O)C1O; X55 = CCCCC/C=C/C/C=C\CCCCCCCC(=O)*; Hyp = O=C(O)[CH]1C[CH](O)CN1; Cbz = O=C(OCc1ccccc1)*; Boc = CC(C)(C)OC(=O)*; tBu = CC(C)(C)* Bounds are passed on as bounds.

As for `CC(OC(C)(C)C)C(NC(=O)C(CCCCNC(=O)OC(C)(C)C)NC(=O)C(Cc1c[nH]c2ccccc12)NC(=O)C(Cc1ccccc1)NC(=O)OCc1ccccc1)C(=O)NC(Cc1ccccc1)C(=O)O` (stereo not given) (Cbz-FWK(Boc)T(tBu)F-OH; configuration not given here), the GI50 was 28.1 µM (inactive) in the assay with CCRF-CEM; > 100 µM (inactive) with EKVX; 30.8 µM (inactive) with HCC 2998; 73.6 µM in the assay on HCT-15; > 100 µM (inactive) in the assay with HL-60; > 100 µM (inactive) with HOP-92. Further, the GI50 in the assay with Hs-578T was 0.9 µM (active); in the assay with M14 it was > 100 µM (inactive); in the assay with MDA-MB-435 it was 40.5 µM (inactive); in the assay with MDA-N it was 38.5 µM (inactive); in the assay with NCI-H522, 27.9 µM (inactive); with OVCAR-4 it was 91 µM (inactive). Besides, the GI50 with OVCAR-5 was 33.1 µM (inactive); in the assay with OVCAR-8 it was 95.1 µM (inactive); with PC-3, 34.8 µM (inactive); with SF-295 it was 76.7 µM (inactive); in the assay on SW-620 it was 75.2 µM (inactive); in the assay with TK-10, > 100 µM (inactive). Further, the GI50 in the assay with UACC-257 and in the assay with UO-31 was > 100 µM (inactive) each time.

Regarding `CCCCC/C=C/C/C=C\CCCCCCCC(=O)NC1CC(O)C(O)NC(=O)C2C(O)C(C)CN2C(=O)C(C(C)O)NC(=O)C(C(O)C(O)c2ccc(O)cc2)NC(=O)C2CC(O)CN2C(=O)C(C(C)O)NC1=O` (stereo not drawn) (X55-[ξOrn(4,5-diOH)]T[Hyp][ξhTyr(βξ-OH,γξ-OH)]T[ξPro(3ξ-OH,4ξ-Me)]; lactam 1-C; configuration not given here), the GI50 is > 100 µM (inactive) in the assay with CCRF-CEM; > 100 µM (inactive) in the assay on EKVX; > 100 µM (inactive) in the assay with HCC 2998; above 100 µM with HCT-15; > 100 µM (inactive) in the assay with HL-60; > 100 µM (inactive) in the assay on HOP-92. Further, the GI50 with Hs-578T, with M14, with MDA-MB-435, in the assay on MDA-N, in the assay with NCI-H522 and with OVCAR-4 was > 100 µM (inactive) in each case. The GI50 in the assay on OVCAR-5, with OVCAR-8, in the assay on PC-3, in the assay with SF-295, with SW-620 and with TK-10 was > 100 µM (inactive) in each case. Besides, the GI50 in the assay on UACC-257 and in the assay with UO-31 was > 100 µM (inactive) in each case.
